From patent US20180098538A1, “CONFIGURATIONAL STEREOISOMER OF DIFETHIALONE, COMPOSITION AND RODENTICIDAL BAIT COMPRISING SAME, AND PROCESS FOR CONTROLLING TARGET RODENT PESTS” (priority 2015, published 2018)

Format: in vivo
Details: rats which consumed a bait comprising 15 ppm of difethialone of the prior art
Procedure: For comparative purposes, the difethialone content retained in the liver of rats which consumed a bait comprising 15 ppm of difethialone of the prior art is about 110 μg/gram.

O=c1sc2ccccc2c(O)c1C1CC(c2ccc(-c3ccc(Br)cc3)cc2)Cc2ccccc21 (stereo not shown) [difethialone, 3-(4′-bromobiphenyl-4-yl)-1-(4-hydroxythiocoumarin-3-yl)-1,2,3,4-tetrahydronaphthalene]
Difethialone content retained in the liver: about 110 μg/gram
